Source: patent US11484576B2, “Methods of promoting corticospinal neuronal outgrowth in neuronal lesions using a pro-regenerative human osteopontin fragment” (THE CHILDREN'S MEDICAL CENTER CORPORATION, priority 2017, dated 2022)

Tests used:
optic nerve axons = assay: Optic nerve axon regeneration after optic nerve crush; assay type: in vivo, mouse
Method: The effects of various forms of active OPN were assessed for their capacity to promote optic nerve axon regeneration in an induced injury model. To express the various forms of active OPN AAVs expressing all forms of mouse OPN were injected intravitreally in anesthetized mice. To induce the injury model the optic nerves were crushed using a pair of forceps two weeks after intravitreal injection. Recombinant proteins (CNTF, IGF1, BDNF) were injected at 0 and 7 days after the crush (1 ul each, 1 ug/ul). Fluorescent cholera toxin beta subunit (CTB-555) was injected intravitreally 12 days after crush to trace the axons before the tissues were fixed 14 days after crush, sectioned and imaged.

p-IGFRβ = assay: phospho-IGFRβ immunostaining in corticospinal neurons after cortical injection of recombinant proteins, T10 lateral hemisection; assay type: in vivo, mouse; details: intact or axotomized mature CSNs; recombinant protein alone
Excerpt: (§1) However, it is unknown whether IGF1 triggers similar signaling activation in adult CSNs and, if so, whether it could be altered by OPN treatment. Thus CSNs were labeled by spinal injection of HiRet-GFP, performed T10 lateral hemisection, and then bilaterally injected recombinant IGF, OPN or OPN/IGF1 proteins were bilaterally injected into the cortex (FIG. 5A). In 3 days, the cortical sections from both injured and intact sides of adult mice were immunostained for three factors. Anti-IGFR, anti-phospho-IGFRβ, an indicator for the activation of the IGF-1 mediated signaling pathways (Hernandez-Sanchez et al., 1995; Siddle, 2012), and anti-phospho-S6 (p-S6), an established marker of mTOR activation, one of the downstream target of IGF1 mediated signaling pathways (Liu et al., 2010; Pollak, 2008).
(§2) Virus and Protein Injection. […]
(§3) Immunohistochemistry and Imaging. […] To quantify and compare fluorescence intensity of IGFR, pIGFRβ and pS6 in GFP+ CSNs (FIGS. 2C-2E), CST axons in the dorsal funiculus (FIG. 3G) and CD68 staining (FIG. 10F) and corticofugal projections at multiple subcortical areas (FIG. 7B), and axon density of the intact side in the spinal cord (FIGS. 8E and 8F), all images used for analysis under multiple conditions were taken using the same optical parameters and avoided for saturation. […]

[1] = test system: mice with T10 lateral hemisection; assay: Irregular ladder walking after spinal cord T10 lateral hemisection; assay type: in vivo, mouse; details: for error rate, irregular walking task, denervated hindlimb: 12 weeks after injury, AAV injected into sensorimotor cortex 1 day after injury; for performance in irregular ladder, overground, or treadmill walking: injured mice with AAV-OPN/IGF1 or AAV-PLAP, 14 weeks post injury, i.p., quipazine 0.2 mg/kg, 8-OH-DPAT 0.1 mg/kg, SKF 0.1 mg/kg
Method: (§4) Injury Models. […] Briefly, a midline incision was made over the thoracic vertebrae, followed by a T10 laminectomy. The unilateral hemisection was then performed carefully using both scalpel and micro-scissors, avoiding, to the greatest extent, the damage of the spinal cord dura. The muscle layers were then sutured and the skin was secured with wound clips. All mice received post hoc histological analysis and those with spared CST axons (incomplete lateral hemisection) or with significant less CST axons on the contra-lesional side (over lateral hemisection) at the lumbar spinal cord (L3), exemplified in FIG. 9A, were excluded for behavioral analysis.
Virus and Protein Injection.
Irregular Ladder Walking. […] Briefly, the ladder was elevated 30 cm above the ground. […] To prevent animals from learning the pattern, the irregular pattern was changed from trial to trial. All trials were video recorded (Hotshot e64, 100 fps) and paw placement was analyzed twice by blinded observers. Steps with precise placement of the center of the palm on the rung (for both forelimbs and hindlimbs) and digits closed (for forelimbs) were defined as correct steps (hit). All other steps were recorded as errors, which included two types: 1) Miss: when crossing the ladder, the forelimb/hindlimb either completely miss the rung or contact the rung with the wrist/heel instead of the paw; 2) Slip: when crossing the ladder, the mice use a few digits instead of the paw to place on the rungs, causing the subsequent slip on the rungs. The results were expressed as both percentage of total errors and percentage of different placement categories (hit, miss and slip).
(§5) Pharmacological Treatment. […] All behavioral tests were then accomplished between 1-3 hours post administration.

CST axons = assay: CST regrowth (axon regeneration and midline-crossing sprouting) after T10 lateral hemisection; assay type: in vivo, mouse; details: AAV-expressed; for regrowth of injured CST axons at the lesion site: horizontal sections covering the lesion; for sprouting of intact CST axons across midline into the denervated side: spinal levels below the injury site
Excerpt: Since the mice treated with AAV-OPN/IGF1 were co-injected with AAV-channel rhodopsin (ChR2)-mCherry (AAV-ChR2-mCherry) or AAV-ChR2-YFP to the ipsi-lateral or contra-lateral cortex, respectively, at the termination of behavioral assessment, a post hoc examination of the T10 lateral hemisection histology was first performed. Mice with incomplete- or over-hemisection could be readily identified by analyzing labeled CST axons at the lumbar spinal cord and excluded from further analysis (FIG. 2A). CST regrowth was examined by preparing horizontal spinal cord sections covering the lesion sites to assess axon regeneration across the lesion site, and transverse sections of lower spinal cord segments to assess midline-crossing of CST axons from intact side. […] Thus, these sprouting axons play an important role in the observed functional recovery. Therefore, combined treatment of AAV-OPN and AAV-IGF1 not only promotes CST regrowth but also CST-dependent behavioral performance.
Axon Counting and Quantification. To quantify the number of sprouting axons, a horizontal line was firstly drawn through the central canal and across the lateral rim of the gray matter. Three vertical lines (Mid, Z1, and Z2) were drawn to divide the horizontal line into three equal parts, starting from the central canal to the lateral rim. While Mid denotes midline crossing fibers, Z1 and Z2 are for sprouting fibers at different distance from the midline. Only fibers crossing the three lines were counted on each section. The results were presented after normalization with the number of counted CST fibers at the medulla level.
For quantifying total labeled CST axon, AAV-ChR2-YFP (FIG. 4D) or AAV-ChR2-mCherry (FIGS. 4C, 7E and 8E) labeled CST fibers were counted at the level of medulla oblongata 1 mm proximal to the pyramidal decussation. Axons were estimated by counting 4 rectangular areas (about 10000 μm^2/area) per section on two adjacent sections.
To quantify the regenerating axons (FIG. 4D), the number of intersections of chR2-YFP-labeled fibers with a dorsal-ventral line positioned at a defined distance caudal from the lesion center was counted under a 25X objective. Fibers were counted on 3 sections with the main dorsal CST and 1-3 lateral sections with collaterals in the gray matter. The number of counted fibers was normalized by the number of labeled CST axons in the medulla and divided by the number of evaluated sections.

p-S6 = assay: phospho-S6 immunostaining (mTOR activation) in corticospinal neurons after cortical injection of recombinant proteins, T10 lateral hemisection; assay type: in vivo, mouse; details: intact and axotomized CSNs; recombinant proteins injected into cortex
Excerpt: as §1, §2, §3

[2] = test system: mice with T10 lateral hemisection; assay: Ground walking and treadmill walking after T10 lateral hemisection; assay type: in vivo, mouse; details: i.p.
Method: as §4, §5

injured mice = assay: Adverse effects of systemic potassium channel blockers in injured mice; assay type: in vivo; details: doses above 1 mg/kg (3 mg/kg tested), injured mice
Method: Chemicals and Antibodies. For systematic administration (i.p.), Quipazine [Sigma (Q1004), 0.2 mg/kg), SKF-82197 [Tocris (1447) 0.1 mg/kg], and 8-OH-DPAT [Tocris (0529), 0.1 mg/kg), 4AP [Sigma (275875), 1 mg/kg, 3 mg/kg), 4AP-MeOH [Santa Cruz (sc-267247), (1 mg/kg)] were dissolved in saline. Tamoxifen (Sigma, 10540-29-1) was dissolved in oil. For diphtheria toxin mediated cell ablation, we purchased the diptheria toxin from Sigma (D0564). For immunostaining, the primary antibody used were chicken anti-GFP [Abcam (Cat: ab13970)], rabbit anti-RFP [Abcam (Cat: ab34771)], rabbit anti-PKCγ [Santa Cruz (sc211)], rabbit anti-GFAP [DAKO (Z0334)]; rabbit anti-5-HT [Immunostar (20080)], rabbit-anti-IGFR [Santa Cruz (sc-712)] rabbit-anti-pIGFR[3 [Cell signaling technology (3024)], rabbit-anti-pS6 [Cell signaling technology (4857)], rat anti-CD68 [Bio-Rad (MCA 1957)], and Guinea pig-anti-Vglut1 [Synaptic Systems (135304)].
Pharmacological Treatment. […] A pilot experiment was performed and determined that 4AP (1 mg/kg, 3 mg/kg) and 4AP-MeOH (1 mg/kg) achieved their maximal effects within 1-3 hours post systematic administration (i.p.). […]

Q: Which results are given for “IGF1: recombinant human insulin-like growth factor 1 (Peprotech)”?
A: dose dependence of the regenerative effect (optic nerve axons; combined with OPN): dosage dependent; effect on p-IGFRβ (p-IGFRβ): no overt effect; error rate, irregular walking task, denervated hindlimb [1]: ~70%; regrowth of injured CST axons at the lesion site (CST axons): significant die-back from the lesion site; sprouting of intact CST axons across midline into the denervated side (CST axons): little sprouting across midline; effect on p-S6 levels (p-S6): not IGF1 or OPN alone

Q: Which “performance in irregular ladder, overground, or treadmill walking” value (“performance … or treadmill walking” for short) [1] does the source give for `CCCN(CCC)C1CCc2cccc(O)c2C1` (stereo not drawn) [8-OH-DPAT] here?
A: Its value is “failed to improve”.

Q: For “OPN: recombinant osteopontin (OPN) protein (Peprotech), injected into cortex or intravitreally”, which “effect of OPN added to CNTF on optic nerve axon regeneration” value (optic nerve axons; OPN with CNTF) is on record?
A: The value was “no added effect”.

Q: And the “effect of recombinant OPN protein on the optic nerve” value (optic nerve axons; intravitreal application, combined with IGF1 (FIG. 20))?
A: The value was “pro-regenerative effects”.

Q: And the “effect on p-IGFRβ” value (p-IGFRβ)?
A: Its value is “no overt effect”.

Q: What about the “error rate, irregular walking task, denervated hindlimb” value [1] of the same molecule?
A: The value was roughly 70%.

Q: And the “regrowth of injured CST axons at the lesion site” value (CST axons)?
A: Its value is “significant die-back from the lesion site”.

Q: What about the “sprouting of intact CST axons across midline into the denervated side” value (CST axons) of the same molecule?
A: The value was “little sprouting across midline”.

Q: What about the “effect on p-S6 levels” value (p-S6) of the same molecule?
A: Its value is “not IGF1 or OPN alone”.

Q: With `Nc1ccncc1` [4-AP, 4-aminopyridine] as the molecule, how does the “recovery of treadmill walking performance compared to the control” value [2] read?
A: The value was “neither 4-AP nor 4-AP-MeOH had significant effects”.

Q: What about the “error rates, irregular ladder walking task” value ([1]; 1 mg/kg i.p., mice with OPN/IGF1 treatment) of the same molecule?
A: The value was “showed a trend of reducing the error rates in mice with OPN/IGF1 treatment, but failed to reach statistical significance”.

Q: What about the “adverse effect at higher doses” value (injured mice) of the same molecule?
A: The value was “seizures”.

Q: How did the “performance … or treadmill walking” value [1] turn out when `Oc1cc2c(c(Cl)c1O)CCNCC2c1ccccc1` (stereo not drawn) [SKF] was run?
A: The value was “failed to improve”.

Q: And the “hindlimb performance in irregular ladder walking on the denervated side” value ([1]; injured mice, i.p. 0.1 mg/kg)?
A: The value was “deteriorated the hindlimb performance”.

Q: For `c1ccc2nc(N3CCNCC3)ccc2c1` [quipazine], which “performance … or treadmill walking” value [1] is on record?
A: Its value is “failed to improve”.

B1: recombinant CNTF: recombinant CNTF protein injected after optic nerve crush (protein, UniProt P26441 1-200, looked up)
Ciliary neurotrophic factor: MAFTEHSPLTPHRRDLCSRSIWLARKIRSDLTALTESYVKHQGLNKNINLDSADGMPVASTDQWSELTEAERLQENLQAYRTFHVLLARLLEDQQVHFTPTEGDFHQAIHTLLLQVAAFAYQIEELMILLEYKIPRNEADGMPINVGDGGLFEKKLWGLKVLQELSQWTVRSIHDLRFISSHQTGIPARGSHYIANNKKM
Q: B1 was tested. Which optic nerve regeneration (optic nerve axons; intravitreal AAV 2 weeks before crush, recombinant proteins at 0 and 7 days after crush (1 ul, 1 ug/ul), 14 days after crush) did it give?
A: Its optic nerve regeneration is “no effect”.
